Measurements: paper PMC9166630, “SAR Probing of KX2-391 Provided Analogues With Juxtaposed Activity Profile Against Major Oncogenic Kinases” (Frontiers in Oncology, 2022)

Key:
Settings in all cases: 4e 0.1 µM, HL60 lysate
PDGFR[beta] = assay: PamChip tyrosine kinase microarray, PDGFR[beta]; format: biochemical, human
Experimental: (§1) The changes in kinase activities induced by treatment with 4e were monitored within the HL60 cell lines using PamGene’s (Hertogenbosch, Netherlands) PamChip® peptide microarray profiler, which quantifies the activities of 144 tyrosine kinases (YK) ([29], [30]) (Figure 7). Results are provided as a log fold change (LFC) heatmap and Mean Kinase Statistic. From the LFC it is apparent that compound 4e, at a concentration of 0.1 µM, induced sizable changes to the activity of several kinases within the cell signaling YK profile (Figure 7A).
(§2) An Upstream Kinase tool was used to generate a putative list of kinases responsible for phosphorylating the phospho-sites on the PamChip (Figure 7B) ([31]). It is an interpretation and is highly dependent on the contents of the underlying phosphorylation databases. A Kinase Score was used for ranking kinases based on their significance and specificity in terms of the set of peptides used for the corresponding kinase. Kinase Statistics indicates the overall change of the peptide set that represents the kinase. Kinase statistics value <0 indicates lower kinase activity in the compound spiked lysate and vice versa ([32], [33]). Table 5 lists the 20 most changed kinases within treated HL60 cell lysates by 0.1 μM 4e, ranked according to their Kinase Score.
(§3) The compound 4e was spiked into HL60 cell lysate at different concentrations (0.001, 0.01, 0.1, 1, 10 and 50 μM). In addition, DMSO was also spiked in HL60 lysate at low concentration (2% v/v) as control. Samples were profiled on PamGene’s Tyrosine Kinase (PTK) arrays in technical replicates, covering a total of 196 phosphorylation sites. Frozen HL60 cultured cell pellet was sent to PamGene. At PamGene, cells were lysed using a lysis buffer and proteases inhibitors cocktail. Protein concentration was measured using standard Bradford assay as per PamGene SOPs. These lysates were further used for generating the PTK activity profiles. For spiking, 4e was received as powder form and dissolved in DMSO at PamGene facility followed by storing at -20°C in small aliquots. PamGene used its in-house bioinformatics toolbox in combination with other methods to generate hypotheses of signaling pathways.

Blk = assay: PamChip tyrosine kinase microarray, Blk; format: biochemical, human
Experimental: as §1, §2
The two multiple-kinase tests (PamChip and Phosphokinase Profiler) provided strong evidence of very minor involvement of Src in the cellular activities of 4e. However, the question must be raised about the effect of the 4e on other SRC family kinase (SFK). To address this point, we must highlight that both R&D phosphokinase profiler and PamChip feature Yes, Fgr, Lyn, Lck and Src while Fyn, Hck, Blk and Frk activities are tested in the PamChip only. The signals of SFKs in the R&D Phosphokinase Profiler were too weak to detect in both untreated (control) and 4e-treated HL60 cells. In PamChip assay, most of SFK’s were not ranked in the top 20 affected kinases (Table 5). In addition, their Specificity Score were very low (Table 6) indicating their marginal importance to the cell killing activities of 4e. Fgr kinase which ranked 7th in the list (Table 5) was the only SFK member that seems to be affected by the compound, albeit with low Specificity Score (1.03).
The compound 4e was spiked into HL60 cell lysate at different concentrations (0.001, 0.01, 0.1, 1, 10 and 50 μM). In addition, DMSO was also spiked in HL60 lysate at low concentration (2% v/v) as control. Samples were profiled on PamGene’s Tyrosine Kinase (PTK) arrays in technical replicates, covering a total of 196 phosphorylation sites. Frozen HL60 cultured cell pellet was sent to PamGene. […] Protein concentration was measured using standard Bradford assay as per PamGene SOPs. […]

EphA1 = target: T1, EphA1 (Homo sapiens, UniProt P21709); assay: PamChip tyrosine kinase microarray, EphA1; format: biochemical
T1 construct: endogenous in cells; host or cells: HL60 lysate
T1 sequence (P21709 26-976): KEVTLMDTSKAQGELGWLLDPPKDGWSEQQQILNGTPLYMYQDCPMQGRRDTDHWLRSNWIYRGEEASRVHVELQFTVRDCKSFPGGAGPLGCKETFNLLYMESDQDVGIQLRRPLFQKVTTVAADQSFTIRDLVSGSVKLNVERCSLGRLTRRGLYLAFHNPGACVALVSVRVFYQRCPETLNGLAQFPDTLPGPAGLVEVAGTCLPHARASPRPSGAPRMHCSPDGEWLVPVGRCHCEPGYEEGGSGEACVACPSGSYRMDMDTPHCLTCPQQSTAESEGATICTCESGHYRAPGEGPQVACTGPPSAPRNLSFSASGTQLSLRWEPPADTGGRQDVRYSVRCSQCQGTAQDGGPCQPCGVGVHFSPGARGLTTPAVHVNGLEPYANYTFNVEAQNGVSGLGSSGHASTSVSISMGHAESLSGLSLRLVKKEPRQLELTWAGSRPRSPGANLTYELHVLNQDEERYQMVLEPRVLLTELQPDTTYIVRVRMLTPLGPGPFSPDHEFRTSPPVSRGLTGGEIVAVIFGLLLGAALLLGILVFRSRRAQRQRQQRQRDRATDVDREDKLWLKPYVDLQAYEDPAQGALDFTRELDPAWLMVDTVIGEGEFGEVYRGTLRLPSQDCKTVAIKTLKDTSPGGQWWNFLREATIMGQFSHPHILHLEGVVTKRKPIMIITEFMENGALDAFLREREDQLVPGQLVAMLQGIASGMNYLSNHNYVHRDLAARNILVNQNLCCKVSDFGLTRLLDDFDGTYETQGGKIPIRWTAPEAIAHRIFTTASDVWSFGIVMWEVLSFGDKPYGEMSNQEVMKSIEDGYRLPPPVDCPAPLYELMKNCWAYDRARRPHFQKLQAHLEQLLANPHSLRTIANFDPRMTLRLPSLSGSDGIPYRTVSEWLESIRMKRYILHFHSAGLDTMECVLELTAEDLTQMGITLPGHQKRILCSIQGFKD
Experimental: as §1, §2, §3

Structure (SMILES): O=C(Cc1ccc(NC(=O)c2cccc(Cl)c2)cc1)NCc1ccccc1 [Compound 4e, N-(4-(2-(benzylamino)-2-oxoethyl)phenyl)-3-chlorobenzamide]
- Mean Final Score (PDGFR[beta]): 1.8565
- Mean Kinase Statistic (PDGFR[beta]): -0.5885
- Mean Significance Score (PDGFR[beta]): 1.2570
- Mean Specificity Score (PDGFR[beta]): 0.5995
- Mean Final Score (Blk): 0.7362
- Mean Kinase Statistic (Blk): -0.3552
- Mean Significance Score (Blk): 0.6625
- Mean Specificity Score (Blk): 0.0736
- Mean Final Score (EphA1): 1.8401
- Mean Kinase Statistic (EphA1): -0.6954
- Mean Significance Score (EphA1): 1.1254
- Mean Specificity Score (EphA1): 0.7147
